Measured values reported in ChEMBL document CHEMBL1130292, “Novel cyanoguanidines with potent oral antitumour activity” (Bioorg Med Chem Lett, 1997).

Legend:
[1] = tested on: NYH small cell lung cancer (Homo sapiens); test: Evaluated in vitro for antiproliferative activity against NYH cell lines derived from small cell lung cancer
NCI-H460 = test: Evaluated in vitro for antiproliferative activity against […] cell lines derived from large cell carcinoma of the lung; assay type: functional, cell-based; conditions: Homo sapiens
MCF7 = test: Evaluated in vitro for antiproliferative activity against MCF-7 cell lines model of hormone dependent breast cancer; assay type: functional, cell-based; conditions: Homo sapiens
Mus musculus [2] = test: Percent median treated tumor size to that of control tumor size in NYH treatment model in mice (in vivo) after intraperitoneal administration of compound (0.5 mg/kg, number of tumors 8); assay type: functional
B16 = test: In vitro antiproliferative activity against B16 cell lines; assay type: functional, cell-based; conditions: Mus musculus
[3] = tested on: Lewis lung carcinoma cell line; test: In vitro antiproliferative activity against Lewis cell lines; assay type: functional, cell-based; conditions: Mus musculus
YOSHIDA = test: In vitro antiproliferative activity against Yoshida cell lines; assay type: functional, cell-based; conditions: Rattus norvegicus
WALKER = test: In vitro antiproliferative activity against Walker cell line; assay type: functional, cell-based; conditions: Rattus norvegicus
Mus musculus [4] = test: Percent median treated tumor size to that of control tumor size in NYH treatment model in mice (in vivo) after peroral administration of compound (20 mg/kg, number of tumors 11); assay type: functional
[5] = In vitro antiproliferative activity against Fibroblasts; assay type: functional
Mus musculus [6] = test: Percent median treated tumor size to that of control tumor size in NYH treatment model in mice (in vivo) after subcutaneous administration of compound (10 mg/kg, number of tumors 7); assay type: functional
Mus musculus [7] = test: Percent median treated tumor size to that of control tumor size in NYH treatment model in mice (in vivo) after peroral administration of compound (50 mg/kg, number of tumors 13); assay type: functional
Mus musculus [8] = test: Percent median treated tumor size to that of control tumor size in NYH treatment model in mice (in vivo) after peroral administration of compound (25 mg/kg, number of tumors 9); assay type: functional
Mus musculus [9] = test: Percent median treated tumor size to that of control tumor size in NYH treatment model in mice (in vivo) after peroral administration of compound (20 mg/kg, number of tumors 20); assay type: functional
Mus musculus [10] = test: Percent median treated tumor size to that of control tumor size in NYH treatment model in mice (in vivo) after peroral administration of compound (20 mg/kg, number of tumors 9); assay type: functional
Mus musculus [11] = test: Percent median treated tumor size to that of control tumor size in NYH treatment model in mice (in vivo) after peroral administration of compound (20 mg/kg, number of tumors 8); assay type: functional

| IC50 [1] [nM] | IC50 (NCI-H460) [nM] | IC50 (MCF7) [nM] | SMILES | also measured |
| --- | --- | --- | --- | --- |
| 5.7 | 74 | 31 | N#CN/C(=N\CCCCCCOc1cccc([N+](=O)[O-])c1)Nc1ccncc1 |  |
| 0.6 | 27 | 14 | N#CN/C(=N\CCCCCCCOc1ccccc1)Nc1ccncc1 | T/C (Mus musculus [4]): 35% |
| 0.6 | 5.8 | 1.9 | N#CN/C(=N\CCCCCCOc1ccccc1Cl)Nc1ccncc1 |  |
| 12 | 37 | 37 | COc1ccc(OCCCCCC/N=C(\NC#N)Nc2ccncc2)cc1 |  |
| 0.6 | 41 | 6.3 | N#CN/C(=N\CCCCCCOc1ccccc1[N+](=O)[O-])Nc1ccncc1 |  |
| 4.9 | 52 | 30 | N#CN/C(=N\CCCCCCOc1ccccc1)Nc1ccncc1 |  |
| 52 | 590 | 120 | N#CN/C(=N\CCCCCCOc1ccc([N+](=O)[O-])cc1)Nc1ccncc1 |  |
| 1.9 | 38 | 3.8 | COc1cccc(OCCCCCC/N=C(\NC#N)Nc2ccncc2)c1 | T/C (Mus musculus [11]): 42% |
| 6.1 | 59 | 8.8 | N#CN/C(=N\CCCCCCOc1cccc(Cl)c1)Nc1ccncc1 |  |
| 6.2 | 69 | 56 | N#CN/C(=N\CCCCCCCOc1ccc(Cl)cc1)Nc1ccncc1 |  |

Further lines, the compound ahead of its results:

| SMILES | IC50 [1] [nM] | IC50 (NCI-H460) [nM] | IC50 (MCF7) [nM] | also measured |
| --- | --- | --- | --- | --- |
| COc1cccc2c1C(=O)c1c(O)c3c(c(O)c1C2=O)C[C@@](O)(C(C)=O)C[C@@H]3O[C@H]1C[C@H](N)[C@H](O)[C@H](C)O1 [DAUNORUBICIN] | 3.9 | 3.5 | 39 | T/C (Mus musculus [2]): 105%; IC50 (B16): 9.2 nM; IC50 [3]: 61 nM; IC50 (YOSHIDA): 7.4 nM; IC50 (WALKER): 47 nM |
| CC(=O)O[C@H]1C(=O)[C@@]2(C)[C@H]([C@H](OC(=O)c3ccccc3)[C@]3(O)C[C@H](OC(=O)[C@H](O)[C@@H](NC(=O)c4ccccc4)c4ccccc4)C(C)=C1C3(C)C)[C@]1(OC(C)=O)CO[C@@H]1C[C@@H]2O [PACLITAXEL] | 4.3 |  |  | IC50 [5]: 0.9 nM; IC50 (B16): 8 nM; IC50 [3]: 61 nM; IC50 (YOSHIDA): 7.9 nM; IC50 (WALKER): 150 nM; T/C (Mus musculus [6]): 48% |
| N#CN=C(NCCCCCCOc1ccc(Cl)cc1)Nc1ccncc1 [CHS-828] | 2.7 | 50 | 31 | IC50 [5]: 40 nM; T/C (Mus musculus [7]): 0%; IC50 (B16): 280 nM; IC50 [3]: 560 nM; T/C (Mus musculus [8]): 0%; IC50 (YOSHIDA): 140 nM; T/C (Mus musculus [9]): 0%; IC50 (WALKER): 500 nM |
| N#CN/C(=N\CCCCCCOc1ccccc1)Nc1cccnc1 | 52 | 530 | 230 |  |
| N#CN/C(=N\CCCCCCCCOc1ccc(Cl)cc1)Nc1ccncc1 | 15 | 480 | 54 |  |
| N#CN/C(=N\CCCCCOc1ccc(Cl)cc1)Nc1ccncc1 | 6.3 | 590 | 53 |  |
| N#CN/C(=N\CCCCCCCOc1ccccc1)Nc1cccnc1 | 22 | 360 | 42 |  |
| N#CN/C(=N\CCCCCCOc1cc(Cl)c(Cl)cc1Cl)Nc1ccncc1 | 2.1 | 13 | 4.4 | T/C (Mus musculus [10]): 0% |
| COc1ccccc1OCCCCCC/N=C(\NC#N)Nc1ccncc1 | 0.5 | 21 | 1.1 |  |
